Data set [1] has as its target T1, human Kv4.3/KChIP2.2 potassium channel (Homo sapiens, UniProt Q9UK17).
T1 construct: expressed in transfected cells
T1 sequence (Q9UK17 1-655): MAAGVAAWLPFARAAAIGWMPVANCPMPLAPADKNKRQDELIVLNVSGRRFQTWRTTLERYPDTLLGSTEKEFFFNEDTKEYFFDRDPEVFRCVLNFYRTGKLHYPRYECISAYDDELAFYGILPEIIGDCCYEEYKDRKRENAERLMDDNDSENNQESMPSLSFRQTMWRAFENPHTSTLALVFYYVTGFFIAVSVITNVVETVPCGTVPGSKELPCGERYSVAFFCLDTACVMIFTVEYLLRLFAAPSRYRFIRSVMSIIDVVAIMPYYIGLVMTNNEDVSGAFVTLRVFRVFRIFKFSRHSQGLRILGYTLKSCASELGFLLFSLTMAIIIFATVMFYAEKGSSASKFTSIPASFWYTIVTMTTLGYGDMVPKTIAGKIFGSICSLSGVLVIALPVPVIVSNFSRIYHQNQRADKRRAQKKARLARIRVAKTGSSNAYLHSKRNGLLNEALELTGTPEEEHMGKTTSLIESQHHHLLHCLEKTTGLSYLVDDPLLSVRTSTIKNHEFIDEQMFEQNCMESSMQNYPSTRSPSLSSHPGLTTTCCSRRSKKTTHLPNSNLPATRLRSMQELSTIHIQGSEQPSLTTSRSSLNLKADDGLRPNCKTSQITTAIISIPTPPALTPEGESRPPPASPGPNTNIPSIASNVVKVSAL
T1 sequence (Q9NS61 1-270 partner): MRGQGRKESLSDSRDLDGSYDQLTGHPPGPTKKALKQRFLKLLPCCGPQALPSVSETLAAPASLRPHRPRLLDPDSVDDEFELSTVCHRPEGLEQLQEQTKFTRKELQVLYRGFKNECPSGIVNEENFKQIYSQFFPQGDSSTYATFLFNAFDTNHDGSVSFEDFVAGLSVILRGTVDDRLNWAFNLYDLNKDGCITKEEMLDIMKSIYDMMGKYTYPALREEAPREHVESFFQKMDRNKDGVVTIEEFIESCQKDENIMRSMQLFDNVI
The data set can be described thus: Whole cell patch clamp, CHO-K1 cells stably expressing Kv4.3/KChIP2.2. To be noted: CHO-K1, 1 μM. The format is cell-based. The protocol:
For this experiment, a recombinant CHO-K1 cell line stably expressing the human Kv4.3/KChIP2.2 potassium channel was used.
Protocol B: The cells were cultured in 94 mm culture dishes under the culturing conditions of 5% CO2 and 37° C. Subculturing was performed every 3-4 days, by removing the media and then rising the dish with 8 ml PBS (phosphate buffered saline). The PBS was removed and 1 ml Trypsin/EDTA was added to the cells. The cells were incubated about 2 min at 37° C. or 5 min at room temperature and then the dish was rapped to detach and singularize the cells. To inactivate the enzyme 9 ml of media was added and the solution was pipetted up and down to break up clumps of cells. Part of the suspension was then transferred to a new 94 mm dish and media was added to a final volume of 8 ml. If necessary the cells could be seeded onto 35 mm or 94 mm dishes (2 ml media per 35 mm dish and 8 ml media per 94 mm dish). The media was changed every 2-3 days. The media used was the solution for culturing the cells described above. For stable cells antibiotic G418, Hygromycin, Blasticidin, or Zeocin were not added.
The preparation of cells for electrophysiological experiments was performed as described in protocol C hereunder.
Protocol C: The transfected cells and stable cells were transferred from 35 mm cell culture dishes onto coverslips using cold PBS: The media was removed and 0.3 ml of PBS (4-10° C.) was added. The cells were incubated 5 min at room temperature. The dish was rapped to detach and singularize the cells and 1.7 ml media was added and the solution pipetted up and down to break up clumps of cells. Part of the cell suspension was then transferred to a 35 mm dish with coverslips and media. The transfected cells and stable cells could also be transferred from 35 mm cell culture dishes onto coverslips using trypsin: The media was removed and the dish rinsed with 3 ml PBS. The PBS was removed and 0.3 ml 1× Trypsin/EDTA was added and the cells incubated 5 min at room temperature. The dish was rapped to detach and singularize the cells and 1.7 ml media was added and the solution pipetted up and down to break up clumps of cells. Part of the cell suspension was then transferred to a 35 mm dish with coverslips and media.
10 mM stock solutions of the compounds were prepared in DMSO. Solutions of the compounds were prepared by dilution of stock solution in bath solution. If the required stock solution volume was theoretically below 1 μl, bath solutions with higher compound concentration were used for dilution. The maximal DMSO concentration during experiments was 0.1% (v/v).
For patch clamp experiments, the following solutions in demineralized water as vehicle were used (concentration in mM).
Bath (external) solution: 4 KCl, 135 NaCl, 2 CaCl2, 1 MgCl2, 10 D(+)-Glucose, 5 HEPES, pH 7.4 (NaOH).
Pipette (internal) solution: 130 KCl, 1 MgCl2, 10 EGTA, 5 Na2ATP, 5 HEPES, pH 7.4 (KOH).
Experiments were performed using a patch clamp set-up.
Measurements were performed at room temperature (20-25° C.). […] Each cell acted as its own control. The effect of compounds on Kv4.3/KChIP2.2 mediated currents was investigated at one concentration ([…]) with two replicates each (c=1, n=2).
The test protocols are illustrated in FIG. 1 and Table 4. […] Each test protocol consisted of 4 segments.
Subsequently, 14 test pulses (series 1; FIG. 1b and Table 4b) were applied at 0.1 Hz under constant superfusion with bath solution. The protocol was initiated by a voltage jump to −100 mV (400 ms) to achieve full inactivation. Then the Kv4.3/KChIP2.2 channels were transferred to the open state by depolarization to +40 mV for 300 milliseconds (activation). Only cells generating current amplitudes between 1 nA and 50 nA were used for the experimental procedure. No or negligible rundown was observed.
Then, 36 test pulses (series 2) were applied at 0.1 Hz under constant superfusion with the compound dissolved in bath solution. […]
Background: The patch-clamp technique gives a direct electrical read-out from membranes.

Where [2] appears, read: read-out: Kv4.3 charge in %: remaining current measured after application of the compound and relative to the blank.
Where [3] appears, read: read-out: Kv4.3 peak in %: remaining peak height measured after application of the compound and relative to the blank.

Where two headings read alike, the source gives them in different places.

One may read the melting point as the temperature, or range, at which the solid turns liquid. `CN(C)c1ccc(CNC(=O)c2cc3cc(Cl)ccc3o2)cc1` [Compound 64, 5-chloro-benzofuran-2-carboxylic acid 4-dimethylamino-benzylamide] displayed a melting point of 178.6 to 179.7 °C. The remaining activity at 1 µM in data set [1] (setting [2]) is 76%. Also, the remaining activity at 1 µM in data set [1] (setting [3]) turned out to be 85%.

Consider `O=C(Nc1ccc(Cn2cccn2)cc1)c1cc2cc(Cl)ccc2o1` [Compound 105, 5-chloro-benzofuran-2-carboxylic acid (4-pyrazol-1-ylmethyl-phenyl)-amide], for which the melting point lay within 197.4 to 198.8 °C. Also, in data set [1] (setting [2]), the remaining activity at 1 µM was found to be 90%. In addition, the remaining activity at 1 µM in data set [1] (setting [3]) turned out to be 99%.

Regarding `O=C(c1cc2cc(Cl)ccc2o1)N1CC=C(c2ccc(F)cc2)CC1` [Compound 93, (5-chloro-benzofuran-2-yl)-[4-(4-fluoro-phenyl)-3,6-dihydro-2H-pyridin-1-yl]-methanone], the melting point is 111.3 to 116.6 °C. In addition, the remaining activity at 1 µM in data set [1] (setting [2]) came to 73%. Also, the remaining activity at 1 µM in data set [1] (setting [3]) is 89%.

With `COc1ccc(CNC(=O)c2cc3c(C(C)=O)ccc(OC)c3o2)c(OC)c1` [Compound 13, 4-acetyl-7-methoxy-benzofuran-2-carboxylic acid 2,4-dimethoxy-benzylamide], the melting point lay in the range of 148.2 to 150.3 °C. For the same compound, the remaining activity at 1 µM in data set [1] (setting [2]) was determined as 86%. Besides, the remaining activity at 1 µM in data set [1] (setting [3]) came to 99%.

Regarding `COc1ccc(CNC(=O)c2cnc3ccccc3c2)c(OC)c1` [Compound 42, quinolin-3-carboxylic acid 2,4-dimethoxy-benzylamide], the melting point came out at 136.3 °C. The remaining activity at 1 µM in data set [1] (setting [2]) is 89%. In addition, the remaining activity at 1 µM in data set [1] (setting [3]) is 98%.

The compound `COc1ccc(CNC(=O)c2cc3cc(Cl)ccc3o2)c(O)c1` [Compound 108, 5-chloro-benzofuran-2-carboxylic acid 2-hydroxy-4-methoxy-benzylamide] had a melting point of 173.8 to 176.2 °C. Besides, in data set [1] (setting [2]), the remaining activity at 1 µM worked out at 85%. Also, the remaining activity at 1 µM in data set [1] (setting [3]) was 99%.

For the compound `O=C(c1cc2cc(Cl)ccc2o1)N1Cc2ccccc2C1` [Compound 26, (5-chloro-benzofuran-2-yl)-(1,3-dihydro-isoindol-2-yl)-methanone], the melting point lay in the range of 187.1 to 188.5 °C. Further, the remaining activity at 1 µM in data set [1] (setting [2]) was determined as 81%. Further, the remaining activity at 1 µM in data set [1] (setting [3]) is 99%.

`CN(C)CC(NC(=O)c1cc2cc(Cl)ccc2o1)c1ccccc1` (stereo not drawn) [Compound 49, 5-chloro-benzofuran-2-carboxylic acid (2-dimethylamino-1-phenyl-ethyl)-amide]: the melting point lay in the range of 60.2 to 60.4 °C. Also, the remaining activity at 1 µM in data set [1] (setting [2]) was 85%. Also, the remaining activity at 1 µM in data set [1] (setting [3]) was 98%.

As to `Cc1ccc(CNC(=O)c2cc3cc(Cl)ccc3o2)cc1` [Compound 36, 5-chloro-benzofuran-2-carboxylic acid 4-methyl-benzylamide], the melting point fell in the range of 161.9 to 162.9 °C. Moreover, the remaining activity at 1 µM in data set [1] (setting [2]) worked out at 72%. In addition, the remaining activity at 1 µM in data set [1] (setting [3]) is 89%.

With `O=C(c1cc2cc(Cl)ccc2o1)N1CCC(c2ccccc2)CC1` [Compound 38, (5-chloro-benzofuran-2-yl)-(4-phenyl-piperidin-1-yl)-methanone], the melting point fell in the range of 101 to 101.6 °C. Further, the remaining activity at 1 µM in data set [1] (setting [2]) turned out to be 89%. In data set [1] (setting [3]), the remaining activity at 1 µM turned out to be 99%.

Turning to `CC(C)(C)c1ccc(CNC(=O)c2cc3cc(Cl)ccc3o2)cc1` [Compound 71, 5-chloro-benzofuran-2-carboxylic acid 4-tert-butyl-benzylamide], the melting point is 129.5 to 131.1 °C. Moreover, the remaining activity at 1 µM in data set [1] (setting [2]) stood at 71%. In addition, in data set [1] (setting [3]), the remaining activity at 1 µM stood at 95%.

The compound `CC(=O)Oc1ccc(CNC(=O)c2cc3cc(Cl)ccc3o2)cc1` [Compound 33, acetic acid 4-{[(5-chloro-benzofuran-2-carbonyl)-amino]-methyl}-phenyl ester] yielded a melting point of 162.5 to 164.5 °C. In data set [1] (setting [2]), the remaining activity at 1 µM is 89%. Further, the remaining activity at 1 µM in data set [1] (setting [3]) turned out to be 100%.

Values taken from US20080039442A1, “Compounds With Kv4 Ion Channel Activity” (Devgen NV, priority 2004, published 2008).
